Assay results as given in BigSolDB 2.1.

CCOc1ccc2ccccc2c1C(=O)N[C@@H]1C(=O)N2[C@@H]1SC(C)(C)[C@@H]2C(=O)[O-].[Na+]
solubility (mole fraction)
Conditions | 278.15 K | 283.15 K | 288.15 K | 293.15 K | 298.15 K | 303.15 K | 308.15 K | 313.15 K | 318.15 K
in acetone | 4.88e-05 | 7.1e-05 | 0.000106 | 0.000158 | 0.000202 | 0.000255 | 0.000309 | 0.000353 | 0.000401
in acetonitrile | 2.25e-05 | 2.97e-05 | 4.09e-05 | 6.27e-05 | 7.46e-05 | 9.3e-05 | 0.000111 | 0.000128 | 0.000144
in ethanol | 0.000161 | 0.000201 | 0.000246 | 0.00032 | 0.000372 | 0.000442 | 0.000509 | 0.000562 | 0.000615
in isopropanol | 0.000155 | 0.000177 | 0.000201 | 0.000229 | 0.000261 | 0.000297 | 0.000337 | 0.000367 | 0.000395
in methanol | 0.000605 | 0.000803 | 0.00101 | 0.00121 | 0.00149 | 0.00173 | 0.002 | 0.00226 | 0.00251
in n-butyl acetate | 2.14e-05 | 3.21e-05 | 4.3e-05 | 5.85e-05 | 7.24e-05 | 8.6e-05 | 9.63e-05 | 0.000108 | 0.000117
